In test [1] the test system is B16F10 ova melanoma tumor. Put plainly: Study 5: B16F10-Ova subcutaneous tumor model, anti-tumor efficacy. Conditions: for GRI (%) (Day 10): vs vehicle. In kind it is in vivo, female C57Bl/6 mice. The protocol:
Study 5: B16F10-Ova is a cell line derived from B16F10 melanoma that expresses chicken ovalbumin. Seven-week-old female C57Bl/6 mice (Jackson Labs, Maine) were inoculated subcutaneously with 0.04×10^6 B16F10 ova tumor cells and monitored for tumor growth. Once the tumors reached an average of 100-250 mm^3, animals were irradiated with either mock irradiation or 16 Gy of focal beam irradiation (Study Day 0). Animals were then dosed intravenously with either vehicle (PBS) or 0.25 mg/kg of Compound No. 14 on a Q3Dx3 scheduled beginning on Study Day 1. Animals were monitored for tumor volumes and body weight changes twice weekly throughout the study once they reached their humane endpoint. GRI was calculated on the last day with animals remaining in the vehicle group (Study Day 10).
Study 5: A 5 mg/mL stock solution of Compound No. 14 was formulated in PBS at the final concentration of 0.0667 mg/mL and administered intravenously (IV). Final doses received were 0.25 mg/kg. […] Compound No. 14 was administered on a Q3D schedule for 3 doses in single agent treatment group and in combination treatment groups beginning on Day 1. Dose formulation of Compound No. 14 was prepared once and utilized for dosing on each treatment day.
(§1) Studies 4 and 5: Radiation treatment for Studies 4 and 5 were performed using focal beam radiation with volumentric image guidance from computer tomography scans on the SmART (Small animal image-guided radiotherapy) platform (Precision XRay Inc., North Branford, CT). Animals received 4.52 Gy/min of radiation and approximately 1.8 min was needed to reach 8 Gy dose delivery (Study 4) or […] was needed to reach 16 Gy dose delivery (Study 5). Animals were anesthetized during imaging and radiation treatment using 1-2% isoflurane.
(§2) Growth Rate Inhibition: The differences in the tumor growth trends over time between pairs of treatment groups were assessed by fitting each animal's data to a simple exponential growth model and comparing the mean growth rates of the two groups, as described in more detail below. The difference in the growth rates was summarized by the GRI, which is the reduction in growth rate experienced by the treatment group relative to that of the reference group, expressed as a fraction of the vehicle growth rate.
(§3) μT and μC are the mean tumor growth rates for the treatment and reference groups, respectively. μV is the mean tumor growth rate for the vehicle group, which in most cases is the same as the reference group.
(§4) A GRI greater than 100% is interpreted as tumor regression when the vehicle group is the same as the reference group. A negative value of the GRI means that the tumors in the treatment group grew faster than the tumors in the reference group. Statistical significance was determined using an unpaired t-test.
(§5) Tumor Growth Rate Computation: Low tumor volumes can cause problems with the data analysis, so all measurements below 25 cubic mm (including 0 values) were excluded from the analysis. After this exclusion step, the tumor volume was assumed to follow an exponential growth model. More specifically, for a given animal and treatment group,
(§6) where Vi is the tumor volume at the i^th time point. Here, a is the initial log volume, b is the tumor growth rate, and t1 is the measurement time in days. εi is the residual error term, which was assumed to be uncorrelated and drawn from a normal distribution.
This model was fit separately for each animal within each treatment group. If an animal was sacrificed or died early, but at least two unique time points were measured (including baseline), then the data up to that point was used to estimate the growth rate. If the animal had measurements at less than two time points, then the animal was automatically excluded from the analysis.
In rare cases, the estimated growth rate for one or more animals might be very different from the other animals within the same group. […]

In test [2] the test system is CT26 murine colorectal carcinoma tumor. The test can be described thus: Study 4: CT26 subcutaneous tumor model, anti-tumor efficacy. Conditions: for GRI (%) Day 11: vs vehicle. Type of test: in vivo, female Balb/c mice. On the procedure: Study 4: CT26 is a murine colorectal carcinoma cell line. Eight-week-old female Balb/c mice (Jackson Labs, Maine) were inoculated subcutaneously with 0.2×10^6 CT26 tumor cells and monitored for tumor growth. Once the tumors reached an average of 100-125 mm^3, animals were irradiated with either mock irradiation or 8 Gy of focal beam irradiation (Study Day 0). Animals were then dosed intravenously with either vehicle (PBS) or 0.25 mg/kg of Compound No. 14 on a QW×3 schedule beginning on Study Day 1. Anti-mPD-1 antibody (clone RMP1-14, BioXCell) treatment was administered intraperitoneally twice weekly starting on Study Day 1 with a concentration of 10 mg/kg for 3 weeks. Animals were monitored for tumor volumes and body weight changes twice weekly throughout the study once they reached their humane endpoint. GRI was calculated on the last day with animals remaining in the vehicle group (Study Day 11).
Study 4: A 5 mg/mL stock solution of Compound No. 14 was formulated in PBS at the final concentration of 0.0667 mg/mL and administered intravenously (IV). Final doses received were 0.25 mg/kg. […] Compound No. 14 was administered on a QW schedule for 3 doses in single agent treatment group and in combination treatment groups beginning on Day 1. Dose formulation of Compound No. 14 was prepared once and utilized for dosing on each treatment day.
Anti-mPD-1 or isotype control was administered concurrent with Compound No. 14 or vehicle control on a BIW schedule for 3 doses in single agent treatment groups and in combination treatment groups.
as §1, §2, §3, §4, §5, §6
This model was fit separately for each animal within each treatment group. If an animal was sacrificed or died early, but at least two unique time points were measured (including baseline), then the data up to that point was used to estimate the growth rate. […]

The mark [3] stands for this setting: TG02 Compound No.14 0.25 mg/kg Q3Dx3 IV, single agent.
Setting [4] is: TG04 Compound No.14 0.25 mg/kg Q3Dx3 IV + radiation 16 Gy, through Day 10.
Setting [5] is: TG02 Compound No. 14 0.25 mg/kg QWx3 IV, single agent.
Where [6] appears, read: TG05 Compound No.14 0.25 mg/kg QWx3 IV + Radiation 8 Gy, through Day 11.

In the case of `Nc1ncnc2c1ncn2[C@@H]1O[C@@H]2COP(=O)(S)O[C@@H]3[C@H](O)[C@@H](COP(=O)(S)O[C@H]2[C@H]1F)O[C@H]3n1cc(F)c2c(=O)[nH]cnc21` (stereo partly drawn) [Compound No. 14], the “Number of Animals Removed” value turned out to be 4 in test [1] (setting [3]), 0 in test [1] (TG04 Compound No.14 0.25 mg/kg Q3Dx3 IV + radiation 16 Gy), 0 in test [2] (setting [5]) and 0 in test [2] (TG05 Compound No. 14 0.25 mg/kg QWx3 IV + Radiation 8 Gy). In addition, the “GRI (%) (Day 10)” value in test [1] (setting [3]) is reported as 11%; in test [1] (TG04 Compound No.14 0.25 mg/kg Q3Dx3 IV + radiation 16 Gy (Day 0)), 67%. Moreover, the “Combination Assessment” value in test [1] (setting [4]) and in test [2] (setting [6]) was “Additive” in each case. Also, the “Synergy Score %” value in test [1] (setting [4]) was −21%; in test [2] (setting [6]), −12%. The “GRI (%) Day 11” value in test [2] (setting [5]) came out at 13%; in test [2] (TG05 Compound No. 14 0.25 mg/kg QWx3 IV + Radiation 8 Gy (Day 0)), 88%.

These data come from US20240335464A1, “ADMINISTRATION OF STING AGONIST, CHECKPOINT INHIBITORS, AND RADIATION” (Takeda Pharmaceutical Company Limited, priority 2020, published 2024).
